Converted amounts (≈) assume the structure as drawn. Where two headings read alike, the source gives them in different places.
Columns and labels:
S. aureus USA300 [1] = assay: microbe, parasite or virus in culture; format: cell-based, Staphylococcus aureus; details: Staphylococcus aureus, MRSA / USA300; Table 14; read-out: MIC S. aureus USA300 (MRSA)
Summary of the method: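 Broth microdilution: log-phase cultures in tryptic soy broth diluted to OD600 0.001, exposed to two-fold diluted peptides at 37° C overnight, growth read at 630 nm. Medium effects on S. aureus USA300 tested with up to 200 mM NaCl, 2 mM CaCl2, 5-10% human serum, mouse plasma, fluids or tissue homogenate supernatants.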

E. faecium V286-17 (VRE) = assay: microbe, parasite or virus in culture; format: cell-based, Enterococcus faecium; details: Enterococcus faecium, VRE, read-out: MIC E. faecium V286-17 (VRE)
Summary of the method: (§1)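 Peptides were serially diluted two-fold against bacteria grown in tryptic soy broth to log phase (OD600 ≈0.5), then seeded at OD600 0.001. Plates were held overnight at 37° C and read at 630 nm. USA300 was also tested at pH 6.8, 7.2 and 8.0, with 150 mM NaCl or 5-10% serum, plasma or peritoneal fluid.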

P. aeruginosa E411-17 = assay: microbe, parasite or virus in culture; format: cell-based, Pseudomonas aeruginosa; details: Pseudomonas aeruginosa, E41117; Table 14; read-out: MIC P. aeruginosa E411-17
Summary of the method: as §1

K. pneumoniae E406-17 = assay: microbe, parasite or virus in culture; format: cell-based, Klebsiella pneumoniae; details: Klebsiella pneumoniae, E40617; Table 14; read-out: MIC K. pneumoniae E406-17
Summary of the method: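 Broth microdilution in tryptic soy broth: log-phase cultures (OD600 ≈0.5) diluted to OD600 0.001, given two-fold peptide dilutions, incubated overnight at 37° C. Growth read at 630 nm.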

E. coli E423-17 = assay: microbe, parasite or virus in culture; format: cell-based, Escherichia coli; details: Escherichia coli, E42317; Table 14; read-out: MIC E. coli E423-17
Summary of the method: as §1

A. baumannii B26-16 = assay: microbe, parasite or virus in culture; format: cell-based, Acinetobacter baumannii; details: Acinetobacter baumannii, B2616; Table 14; read-out: MIC A. baumannii B26-16
Summary of the method: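 Broth microdilution in tryptic soy broth: log-phase cultures diluted to 0.001 OD600 and exposed to peptide dilutions overnight at 37 °C, growth read at 630 nm. For S. aureus USA300, medium effects tested at pH 6.8, 7.2 and 8.0, with 150 mM NaCl, or with 5–10% human serum, mouse plasma or peritoneal fluid.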

[2] = system: K. pneumoniae E406-17 biofilms; assay: Biofilm disruption and attachment; format: cell-based, Klebsiella pneumoniae
Method: Briefly, S. aureus USA300 and K. pneumoniae E406-17 (10^5 CFU/mL) were prepared from exponentially phase. Each well of the microtiter plate (Corning Costar® Cat No. 3595) was aliquoted with 180 μL of inoculum and the plates were incubated at 37° C. for 48 hours to form biofilm. Culture treated with water served as a positive control while media without bacterial inoculation served as the negative control. Media was aspirated post incubation and the attached biofilms were washed with 1×PBS to remove the planktonic bacteria. Each well was aliquoted with 20 μL of 10× peptide solution and 180 μL of fresh TSB media, plates were further incubated at 37° C. for 24 hours. Media aspirated from the wells and washed with 1×PBS to remove planktonic cells. Live cells in the biofilms were quantitated using XTT [2,3-bis(2-methyloxy-4-nitro-5-sulfophenyl)-2H-tertazolium-5-carboxanilide] assay by following the manufacturer's instructions with modifications. 180 μL of fresh TSB and 20 μL of XTT solution was added to each well and the plates further incubated at 37° C. for 2 hours. Absorbance was read at 450 nm (only media with XTT containing wells served as the blank) using a Chromate® microtiter plate reader. Percentage biofilm growth for the peptide was plotted by assuming 100% biofilm growth in bacterial control alone. The data is mean±SD, the significance at […]. […]

S. aureus M838-17 (MRSA) = assay: microbe, parasite or virus in culture; format: cell-based, Staphylococcus aureus; details: Staphylococcus aureus, MRSA; Table 7; by weight; read-out: MIC S. aureus M838-17 (MRSA)
Summary of the method: as §1

[3] = system: clinical strains of methicillin-resistant and susceptible S. aureus; assay: microbe, parasite or virus in culture; details: for MIC: Staphylococcus aureus
Method: The antibacterial activity of peptides was evaluated using a standard broth microdilution protocol with minor modifications (Mishra, et al. (2017) Acta Biomater., 49:316-328). In brief, logarithmic phase bacterial cultures (i.e., optical density at 600 nm≈0.5) were diluted to 0.001 OD and aliquoted 90 μL per well into a 96-well polystyrene microplate. Added 10 μL peptides per well with various concentrations, plates were incubated at 37° C., overnight. Post incubation the plates are read at 630 nm using a ChroMate® Microplate Reader (GMI). […] To study the influence of medium conditions on the antimicrobial activity of peptides against S. aureus USA300 at different pHs (6.8, 7.2, and 8.0), 150 mM sodium chloride (NaCl), 5-10% of human serum, mouse plasma, and peritoneal fluid were included into the assays.

S. aureus USA300 [4] = format: cell-based, Staphylococcus aureus
Method: The experiment was carried out similar to the MIC determination with a few modifications (Ge, et al. (1999) Antimicrob. Agents Chemother., 43:782-788; Ling, et al. (2015) Nature 520:388). In short, an exponential phase S. aureus USA300 culture (i.e., optical density at 600 nm≈0.5) was diluted and partitioned into a 96-well polystyrene microplate with ˜10^5 colony forming units (CFU) per well (90 μL aliquots). After treatment with 10 μL of peptide or antibiotics solutions at various concentrations, microplates were incubated at 37° C. overnight and read on a ChroMate® 4300 Microplate Reader at 630 nm (GMI). […] Plots were made to determine the increase in the fold change (MIC on given passage/MIC recorded in first day of passage).
This experiment was performed similar to the MIC determination with a few modifications. […] After treatment with 10 μL of peptide or antibiotics solutions at various concentrations, microplates were incubated at 37° C. overnight and read on a ChroMate® Microplate Reader at 630 nm (GMI). […] The increase in the fold change (MIC on given passage/MIC recorded in first day of passage) used to determine the degree of drug resistance.

[5] = system: S. aureus USA300 biofilms; details: 48-hour biofilms
Method: The antibiofilm activity of the peptide against 24 hours established biofilms was evaluated. In short, S. aureus USA300 (10^5 CFU/mL) was made from exponential phase bacteria in TSB media and 200 μL was distributed to each well of the microtiter plate (Corning Costar Cat No. 3595). The plates were incubated at 37° C. for 24 hours to form biofilm. Culture treated with water served as a positive control while media without bacterial inoculation served as the negative control. Media was then pipetted out and the attached biofilms were washed with 1×PBS to remove the planktonic bacteria. Each well of the plate was then filled with 20 μL of 10× peptide solution and 180 μL of fresh TSB media and the plates were further incubated at 37° C. for 24 hours. Media was then pipetted out and the wells were washed with 1×PBS to remove planktonic cells. Live cells in the biofilms were then quantitated using XTT [2,3-bis(2-methyloxy-4-nitro-5-sulfophenyl)-2H-tertazolium-5-carboxanilide] assay by following the manufacturer's instructions with modifications. 180 μL of fresh TSB and 20 μL of XTT solution was added to each well and the plates were again incubated at 37° C. for 2 hours. Absorbance at 450 nm (only media with XTT containing wells served as the blank) was obtained using a ChroMate® microtiter plate reader. […]

C[C@@H](O)[C@H]1C(=O)N2C(C(=O)O)=C(S[C@@H]3CN[C@H](CNS(N)(=O)=O)C3)[C@H](C)[C@H]12 [Doripenem, reference compound]
MIC (S. aureus USA300 [1]): 0.25 µM (≈ 0.105 µg/mL)
MIC (E. faecium V286-17 (VRE); Table 14): > 8 µM
MIC (P. aeruginosa E411-17): 2 µM (≈ 0.841 µg/mL)
MIC (K. pneumoniae E406-17): 0.5 µM (≈ 0.21 µg/mL)
MIC (E. coli E423-17): 1 µM (≈ 0.421 µg/mL)
MIC (A. baumannii B26-16): > 8 µM
Adhesion/attachment of K. pneumoniae [2]: showed no effect
Effect on 48-hour preformed biofilms ([2]; 48-hour biofilms): showed no effect

CCOc1ccc2ccccc2c1C(=O)N[C@@H]1C(=O)N2[C@@H]1SC(C)(C)[C@@H]2C(=O)O [Nafcillin]
MIC (S. aureus M838-17 (MRSA)): 0.78 to 1.56 µM (≈ 0.323 to 0.647 µg/mL)
MIC (E. faecium V286-17 (VRE); Table 7): > 12.5 µM
MIC ([3]; MSSA, strain B243-16 MSSA): < 0.25 µM
MIC ([3]; MSSA, strain B254-16 MSSA): < 0.25 µM
MIC ([3]; MSSA, strain B255-16 MSSA): < 0.25 µM
MIC ([3]; MSSA, strain B262-16 MSSA): 0.5 µM (≈ 0.207 µg/mL)
MIC ([3]; MSSA, strain B269-16 MSSA): 0.5 µM (≈ 0.207 µg/mL)
MIC ([3]; NEWMAN, strain Newman): 0.25 µM (≈ 0.104 µg/mL)
MIC ([3]; USA200, strain USA200): > 8 µM
MIC ([3]; USA300, strain USA300): 0.5 µM (≈ 0.207 µg/mL)
MIC ([3]; USA400, strain USA400): 1 µM (≈ 0.414 µg/mL)
MIC ([3]; strain M106-16): 2 µM (≈ 0.829 µg/mL)
MIC ([3]; strain M108-16): 1 µM (≈ 0.414 µg/mL)
MIC ([3]; strain M109-16): 1 µM (≈ 0.414 µg/mL)
MIC ([3]; strain M111-16): 8 µM (≈ 3.32 µg/mL)
MIC ([3]; strain M112-16): 0.5 µM (≈ 0.207 µg/mL)
MIC ([3]; strain M113-16): 0.5 µM (≈ 0.207 µg/mL)
MIC ([3]; strain M114-16): 0.5 µM (≈ 0.207 µg/mL)
MIC ([3]; strain M116-16): < 0.25 µM
MIC ([3]; strain M117-16): 0.5 µM (≈ 0.207 µg/mL)
MIC ([3]; strain M118-16): 0.5 µM (≈ 0.207 µg/mL)
MIC ([3]; strain M119-16): 1 µM (≈ 0.414 µg/mL)
MIC ([3]; strain M120-16): 2 µM (≈ 0.829 µg/mL)
MIC ([3]; strain M121-16): 1 µM (≈ 0.414 µg/mL)
MIC ([3]; strain M122-16): 1 µM (≈ 0.414 µg/mL)
MIC ([3]; strain M123-16): 4 µM (≈ 1.66 µg/mL)
MIC ([3]; strain M126-16): 1 µM (≈ 0.414 µg/mL)
MIC ([3]; strain M127-16): 2 µM (≈ 0.829 µg/mL)
MIC ([3]; strain M128-16): 8 µM (≈ 3.32 µg/mL)
MIC ([3]; strain M129-16): 1 µM (≈ 0.414 µg/mL)
MIC ([3]; strain M130-16): 1 µM (≈ 0.414 µg/mL)
MIC ([3]; strain UAMS-1): 4 µM (≈ 1.66 µg/mL)
MIC ([3]; strain mu50): > 8 µM
Inhibition of Mu50 and USA200 strains ([3]; nafcillin at 8 μM): did not inhibit
MIC increase (S. aureus USA300 [4]; after 16 passages, sub-MIC level): 1000 fold
Resistance development (S. aureus USA300 [4]; multiple passage experiment): developed resistance
Activity against 48-hour biofilms [5]: did not

Reference: US12173088B2, “Anti-microbial peptides” (priority 2018, dated 2024)
